# Experimental data as given in patent US9018207B2, “Method of treatment or prophylaxis” (Spinifex Pharmaceuticals Pty Ltd, priority 2004, dated 2015).
# “Also recorded” adds a separate entry of the source.
# Columns and labels:
# Assay type in all cases: in vivo, Sprague-Dawley (SD) rats
# [1] = test system: rats with a chronic constriction injury (CCI) of the sciatic nerve; assay: Antinociception (von Frey paw withdrawal thresholds) in the contralateral hindpaw of CCI-rats; details: i.p. doses up to 30 μg/kg
# Description: (§1) Adult male Sprague-Dawley (SD) rats were anaesthetized with Zoletil 100® (0.09 ml/200 g) and Xylazil-20™ (0.1 mL/200 g) administered by intraperitoneal (i.p.) injection, and a chronic constriction injury (CCI) of the sciatic nerve was produced according to the method of Bennett and Xie (1988). Briefly, the left common sciatic nerve was exposed at mid-thigh level by blunt dissection through the biceps femoris. Proximal to the trifurcation, 10 mm of nerve was freed of adhering tissue and four loose ligatures (3.0 silk) were tied around the sciatic nerve 1 mm apart). The incision was closed in layers. After surgery, rats received benzylpenicillin (60 mg s.c.) to prevent infection and were kept warm during surgical recovery. Rats were housed singly for 10-14 days prior to AT2 receptor antagonist or vehicle (normal saline) administration. After CCI-surgery, rats were inspected daily with regard to posture of the affected hindpaw, exploring behavior, body weight and water intake, and any signs of autotomy. Whilst under light anaesthesia with CO2/O2 (50:50%), CCI-rats or STZ-diabetic rats received a single bolus injection (200 μL) of one AT2 receptor antagonist (PD123,319 or L-159,686) by the intravenous (i.v.) or the intraperitoneal (i.p.) route, using a 250 μL Hamilton syringe. The test compounds were administered to CCI-rats at 14 days after CCI-surgery and to STZ-diabetic rats at approximately 8-wks after the induction of diabetes with STZ. Relief of tactile (mechanical) allodynia, the defining symptom of neuropathic pain, by each of the test agents, PD123,319 or L-159,686, was quantified using calibrated von Frey filaments as described below. Tactile allodynia was quantified using calibrated von Frey filaments. Rats were placed in wire mesh testing cages (20 cm×20 cm×20 cm) and allowed to acclimatise for approximately […] Von Frey filaments were used to determine the lowest mechanical threshold required for a brisk paw withdrawal reflex. Briefly, the filament that produced the lowest force was applied to the plantar surface of the hindpaw until the filament buckled slightly. Absence of a response after 5 s prompted use of the next filament in an ascending sequence. Filaments used produced a buckling weight of 2, 4, 6, 8, 10, 12, 14, 16, 18 and 20 g and these were calibrated prior to each testing session. […] For CCI-rats, baseline von Frey paw withdrawal thresholds (PWTs) were quantified prior to CCI-surgery, and at 14 days post-surgery immediately prior to drug administration. For STZ-diabetic rats, baseline von Frey PWT values were determined prior to the induction of diabetes with STZ and at 1-2 weekly intervals thereafter for 8 weeks to document the temporal development of tactile allodynia. For all rats, baseline PWTs were the mean of three readings taken, 5 min apart before drug administration and were determined separately for each hindpaw. After administration of each test compound, von Frey PWTs were determined at the following post-dosing times: 0.08, 0.25, 0.5, 0.75, 1, 1.25, 1.5, 2 and 3 h. Paw withdrawal thresholds (PWTs; g) were plotted against time to construct response versus time curves for each of the two test compounds (PD123,319 and L-159,686) for each dose and dosing route. Whilst adult male SD rats were anaesthetized with 3% isoflurane: 97% oxygen, four loose ligatures were tied around one sciatic nerve to produce a unilateral chronic constriction injury (CCI) according to the method of Bennett and Xie (1988, Pain 33: 87-107). […]
# STZ-diabetic rats = assay: Relief of tactile allodynia (von Frey paw withdrawal thresholds) in the hindpaws of STZ-diabetic rats (model of PDN)
# Description: Adult male SD rats were anaesthetized in a manner similar to that described above, to facilitate insertion of a polyethylene cannula (previously filled with 0.1 ml of sterile saline) into the right common jugular vein. Jugular vein cannulae were tested for correct placement by the withdrawal of a small amount of blood. Diabetes was induced following an acute i.v. injection of streptozotocin (STZ) (80 mg/kg) in 0.1 M citrate buffer (pH 4.5) into the jugular vein. Diabetes was confirmed by monitoring the water intake and blood glucose concentration in individual rats. Blood glucose was monitored using either (Glucostix™) or a Precision QID™ test kit.
# Consistent with previous studies in the literature (Calcutt et al., 1996, Pain. 68(2-3):293-9), rats that drank more than 100 mL of water per day by 10 days post-STZ injection, were classified as diabetic, and only rats with blood glucose concentrations exceeding 15 mM were included in the subsequent experiments. By comparison, the water intake of control non-diabetic rats was approximately 20 mL per day and blood glucose concentrations were in the range 5-6 mM, consistent with the literature (Calcutt et al., 1996, supra).
# Whilst under light anaesthesia with CO2/O2 (50:50%), CCI-rats or STZ-diabetic rats received a single bolus injection (200 μL) of one AT2 receptor antagonist (PD123,319 or L-159,686) by the intravenous (i.v.) or the intraperitoneal (i.p.) route, using a 250 μL Hamilton syringe. The test compounds were administered to CCI-rats at 14 days after CCI-surgery and to STZ-diabetic rats at approximately 8-wks after the induction of diabetes with STZ. Relief of tactile (mechanical) allodynia, the defining symptom of neuropathic pain, by each of the test agents, PD123,319 or L-159,686, was quantified using calibrated von Frey filaments as described below.
# Tactile allodynia was quantified using calibrated von Frey filaments. Rats were placed in wire mesh testing cages (20 cm×20 cm×20 cm) and allowed to acclimatise for approximately […] Von Frey filaments were used to determine the lowest mechanical threshold required for a brisk paw withdrawal reflex. Briefly, the filament that produced the lowest force was applied to the plantar surface of the hindpaw until the filament buckled slightly. Absence of a response after 5 s prompted use of the next filament in an ascending sequence. Filaments used produced a buckling weight of 2, 4, 6, 8, 10, 12, 14, 16, 18 and 20 g and these were calibrated prior to each testing session.
# For CCI-rats, baseline von Frey paw withdrawal thresholds (PWTs) were quantified prior to CCI-surgery, and at 14 days post-surgery immediately prior to drug administration. For STZ-diabetic rats, baseline von Frey PWT values were determined prior to the induction of diabetes with STZ and at 1-2 weekly intervals thereafter for 8 weeks to document the temporal development of tactile allodynia. For all rats, baseline PWTs were the mean of three readings taken, 5 min apart before drug administration and were determined separately for each hindpaw. After administration of each test compound, von Frey PWTs were determined at the following post-dosing times: 0.08, 0.25, 0.5, 0.75, 1, 1.25, 1.5, 2 and 3 h.
# Paw withdrawal thresholds (PWTs; g) were plotted against time to construct response versus time curves for each of the two test compounds (PD123,319 and L-159,686) for each dose and dosing route.
# Whilst adult male SD rats were anaesthetized with 3% isoflurane: 97% oxygen, a short polyethylene cannula (0.4 mm ID, 0.8 mm OD) was inserted into the jugular vein to facilitate the intravenous (i.v) administration of a single dose of STZ (75 mg/kg). After removal of the i.v. cannula, the jugular vein was tied off, the wound was closed and topical bupivacaine was applied. Rats received benzylpenicillin (60 mg s.c.) to prevent infection and were kept warm during surgical recovery. […]
# [2] = test system: rats with a chronic constriction injury (CCI) of the sciatic nerve; assay: Relief of tactile allodynia (von Frey paw withdrawal thresholds) in the ipsilateral (injured) hindpaw of CCI-rats; details: oral bolus 30 μg/kg vs same dose i.p.
# [3] = test system: rats with a chronic constriction injury (CCI) of the sciatic nerve; assay: as above
# Description: as §1, with “87-107). Briefly, the left common sciatic nerve was exposed at mid-thigh level by blunt dissection through the biceps femoris. Proximal to the trifurcation, 10 mm of nerve was freed of adhering tissue and four loose ligatures (3.0 silk) were tied around the sciatic nerve 1 mm apart). The incision was closed in layers. After surgery, rats received benzylpenicillin (60 mg s.c.) to prevent infection and were kept warm during surgical recovery.” for “87-107).”
# [4] = STZ-diabetic rats, i.p. bolus 1.0 to 100 ng/kg
# [5] = CCI-rats, i.p. bolus 3 to 30 μg/kg
smiles,measurement,setting,value
"COc1ccc2c(c1OCc1ccccc1)C[C@@H](C(=O)O)N(C(=O)C(c1ccccc1)c1ccccc1)C2 [PD-126,055]",antinociception in the contralateral hindpaw,[1],insignificant antinociception
same,relief of tactile allodynia (summary in discussion),"STZ-diabetic rats; STZ-diabetic rat model of PDN, single i.p. bolus doses",potent relief of tactile allodynia
same,duration of action,STZ-diabetic rats; [4],2 to 3 h
same,onset of action post-dosing,STZ-diabetic rats; [4],0.5 h
same,relief of tactile allodynia,STZ-diabetic rats; [4],significant relief of tactile allodynia
same,time of peak anti-allodynia post-dosing,STZ-diabetic rats; [4],0.75 to 1.0 h
same,reversal of tactile allodynia in the hindpaws,"STZ-diabetic rats; STZ-diabetic rats, i.p., higher doses tested",fully reversed
same,onset of anti-allodynia (summary in discussion),"STZ-diabetic rats; STZ-diabetic rats, single i.p. bolus doses",relatively rapid onset
same,"extent and duration of the anti-allodynic response, oral compared with i.p. route",[2],similar
same,doses required to produce significant relief of tactile allodynia in CCI-rats compared with STZ-diabetic rats,[3]; CCI-rats vs STZ-diabetic rats,considerably larger doses
same,duration of action,"[3]; CCI-rats, 30 μg/kg, irrespective of dosing route (oral or i.p.)",~3 h
same,anti-allodynia (relief of tactile allodynia) in the ipsilateral hindpaw,[3]; [5],dose-dependent onset of anti-allodynia; also recorded: dose-dependent relief of tactile allodynia
same,onset of anti-allodynia in the ipsilateral hindpaw,[3]; [5],rapid
same,time of peak responses post-dosing,[3]; [5],0.75 to 1 h
same,duration of action,"[3]; CCI-rats, i.p., doses larger than 3 μg/kg",> 3 h
same,duration of action,"[3]; CCI-rats, i.p., lowest dose tested (3 μg/kg)",1.5 h
